The test has as its system MX-1 breast xenograft, nude mice, tumor weight T/C. Nature of the test: NCI In Vivo Anticancer Drug Screen. Data for tumor model Human Mammary Carcinoma MX-1 Xenograft (intrarenal inoculation) in NU/NU Swiss (nude) mice. As to conditions: endpoint: mean tumor weight change, higher = larger tumour. The method, boiled down:
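Activity is given as a ratio, with each measurement in the compound-treated arm divided by the matching measurement in vehicle-dosed controls. Tumour size or survival serves as the measured parameter.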
(A xenograft is tissue or cells of one species grown in another, often human tumour cells in immunodeficient mice.)

Setting [1] is: dose: 6.25 mg/kg/injection, schedule: Q01DX010 (sc), vehicle: saline.
Where [2] appears, read: dose: 200.0 mg/kg/injection, schedule: Q04DX003 (sc), vehicle: saline with Tween-80.
Where [3] appears, read: dose: 400.0 mg/kg/injection, schedule: Q04DX003 (sc), vehicle: saline with Tween-80.
Setting [4] is: dose: 800.0 mg/kg/injection, schedule: Q04DX003 (sc), vehicle: saline with Tween-80.

Values joined by “and” are separate entries in the source; they are usually repeats but may differ in a detail not shown here. Equal entries are not always repeated. Results filed as inconclusive are left out.

In PubChem BioAssay AID296 (DTP/NCI, 2004) one finds T/C data, which are given here for 20 molecules.

`O=C1c2ccccc2C(=O)c2c(NCCNCCO)ccc(NCCNCCO)c21`: the T/C is, setting by setting: (dose: 4.0 mg/kg/injection, schedule: Q01DX010 (ip), vehicle: water) 59 % of control; (dose: 8.0 mg/kg/injection, schedule: Q01DX010 (ip), vehicle: water) 80 % of control; (dose: 13.33 mg/kg/injection, schedule: Q04DX003 (ip), vehicle: water) 45 % of control; (dose: 13.33 mg/kg/injection, schedule: Q04DX003 (sc), vehicle: water) 65 % of control; (dose: 16.0 mg/kg/injection, schedule: Q01DX010 (ip), vehicle: water) 61 % of control; (dose: 16.0 mg/kg/injection, schedule: Q01DX010 (sc), vehicle: water) 13 % of control and 25 % of control. Moreover, the T/C is, setting by setting: (dose: 26.65 mg/kg/injection, schedule: Q04DX003 (sc), vehicle: water) 32 % of control; (dose: 32.0 mg/kg/injection, schedule: Q01DX010 (ip), vehicle: water) 20 % of control; (dose: 53.3 mg/kg/injection, schedule: Q04DX003 (ip), vehicle: water) 31 % of control; (dose: 53.3 mg/kg/injection, schedule: Q04DX003 (sc), vehicle: water) 31 % of control.

In the case of `CCC1(O)CC2CN(CCc3c([nH]c4ccccc34)C(C(=O)OC)(c3cc4c(cc3OC)N(C)C3C(O)(C(N)=O)C(O)C5(CC)C=CCN6CCC43C65)C2)C1` (stereo not drawn) (tested in a mixture with another compound), the T/C was 27 % of control (dose: 0.75 mg/kg/injection, schedule: Q04DX003 (sc), vehicle: water); 1 % of control (dose: 1.5 mg/kg/injection, schedule: Q04DX003 (sc), vehicle: water); -44 % of control (dose: 6.0 mg/kg/injection, schedule: Q04DX003 (sc), vehicle: water).

For `C1CCC2C[N-]CCC2C1.C1CCC2C[N-]CCC2C1.C1CCC2C[N-]CCC2C1.C1CCC2C[N-]CCC2C1.[Cl][Rh][Cl]` (stereo not drawn), the T/C is 107 % of control (dose: 18.0 mg/kg/injection, schedule: Q04DX003 (sc), vehicle: saline with Tween-80); 103 % of control (dose: 36.0 mg/kg/injection, schedule: Q04DX003 (sc), vehicle: saline with Tween-80); 86 % of control (dose: 72.0 mg/kg/injection, schedule: Q04DX003 (sc), vehicle: saline with Tween-80); 78 % of control (dose: 144.0 mg/kg/injection, schedule: Q04DX003 (sc), vehicle: saline with Tween-80).

Consider `CCCCNC(C)[C@]1(O)Cc2c(O)c3c(c(O)c2[C@@H](OC2CC(N)C(O)C(C)O2)C1)C(=O)c1c(OC)cccc1C3=O` (stereo partly drawn), for which the T/C by setting is: under setting [1], 59 % of control and 61 % of control; (dose: 18.0 mg/kg/injection, schedule: Q01DX010 (sc), vehicle: saline) 12 % of control.

With `CCN1/C(=C/C=C/C=C\C=C\c2sc3ccc4ccccc4c3[n+]2CC)Sc2ccc3ccccc3c21`, the T/C runs as follows: (dose: 100.0 mg/kg/injection, schedule: Q04DX003 (sc), vehicle: saline with Tween-80) 104 % of control; under setting [2], 89 % of control; under setting [3], 101 % of control; under setting [4], 93 % of control.

As to `CC1=C(/C=C/C(C)=C/C=C/C(C)=C/CO)C(C)(C)CCC1`, the T/C under setting [2] was 89 % of control; the T/C under setting [3] is 112 % of control; the T/C under setting [4] is 84 % of control; the T/C (dose: 1600.0 mg/kg/injection, schedule: Q04DX003 (sc), vehicle: saline with Tween-80) was 96 % of control.

With `C(CSC1=NCCN1)CSC1=NCCN1`, the T/C (dose: 50.0 mg/kg/injection, schedule: Q01DX010 (sc), vehicle: saline) was 103 % of control.

As to `CN(C)N=Nc1ccc(S(N)(=O)=O)cc1`, the T/C (dose: 100.0 mg/kg/injection, schedule: Q01DX010 (sc), vehicle: Klucel (hydroxypropylcellulose) (HPC)) is 75 % of control; the T/C (dose: 200.0 mg/kg/injection, schedule: Q01DX010 (sc), vehicle: Klucel (hydroxypropylcellulose) (HPC)) is 47 % of control; the T/C (dose: 400.0 mg/kg/injection, schedule: Q01DX010 (sc), vehicle: Klucel (hydroxypropylcellulose) (HPC)) is 42 % of control.

As to `CC1OC(=O)C(C(C)C)NC(=O)C(C(C)C)OC(=O)C(C(C)C)NC(=O)C(C)OC(=O)C(C(C)C)NC(=O)C(C(C)C)OC(=O)C(C(C)C)NC(=O)C(C)OC(=O)C(C(C)C)NC(=O)C(C(C)C)OC(=O)C(C(C)C)NC1=O` (stereo not drawn), the T/C (dose: 2.5 mg/kg/injection, schedule: Q01DX010 (sc), vehicle: saline with Tween-80) was 84 % of control; the T/C (dose: 5.0 mg/kg/injection, schedule: Q01DX010 (sc), vehicle: saline with Tween-80) was 150 % of control; the T/C (dose: 10.0 mg/kg/injection, schedule: Q01DX010 (sc), vehicle: saline with Tween-80) is 95 % of control and 112 % of control.

In the case of `Cc1c(N)nc(C(CC(N)=O)NCC(N)C(N)=O)nc1C(=O)NC(C(=O)NC(C)C(O)C(C)C(=O)NC(C(=O)NCCc1nc(-c2nc(C(=O)NCCCNCCCc3ccccn3)cs2)cs1)C(C)O)C(OC1OC(CO)C(O)C(O)C1OC1OC(CO)C(O)C(OC(N)=O)C1O)c1cnc[nH]1` (stereo not drawn), the T/C is 77 % of control (dose: 9.0 mg/kg/injection, schedule: Q04DX003 (sc), vehicle: water); 66 % of control (dose: 18.0 mg/kg/injection, schedule: Q04DX003 (sc), vehicle: water); 75 % of control (dose: 36.0 mg/kg/injection, schedule: Q04DX003 (sc), vehicle: water); 44 % of control (dose: 72.0 mg/kg/injection, schedule: Q04DX003 (sc), vehicle: water).

For the molecule `O=c1[nH]c(=O)c2nc(-c3cccnc3)cnc2[nH]1`, for the setting “dose: 200.0 mg/kg/injection, schedule: Q04DX003 (sc), vehicle: Klucel (hydroxypropylcellulose) (HPC)”, the T/C is 36 % of control.

With `O=S(=O)(O)O.[NH-]C1CCCCC1[NH-].[Pt+2]` (stereo not drawn), the T/C by setting is: (dose: 0.63 mg/kg/injection, schedule: Q01DX010 (sc), vehicle: dextrose) 95 % of control and 111 % of control and 115 % of control; (dose: 2.5 mg/kg/injection, schedule: Q01DX010 (sc), vehicle: dextrose) 10 % of control and 12 % of control.

Regarding `CC(CN1CC(=O)NC(=O)C1)N1CC(=O)NC(=O)C1` (stereo not drawn), the T/C (dose: 150.0 mg/kg/injection, schedule: Q04DX003 (sc), vehicle: Klucel (hydroxypropylcellulose) (HPC)) was 92 % of control and the T/C (dose: 300.0 mg/kg/injection, schedule: Q04DX003 (sc), vehicle: Klucel (hydroxypropylcellulose) (HPC)) is 64 % of control.

As for `C/C=C/c1cc2n(c1)C(=O)c1cc(OC3OC(C)C(NC)C(C)(O)C3O)c(C)c(O)c1NC2O` (stereo not drawn), the T/C runs as follows: (dose: 100.0 micrograms/kg/injection, schedule: Q04DX003 (sc), vehicle: saline) 182 % of control; (dose: 200.0 micrograms/kg/injection, schedule: Q04DX003 (sc), vehicle: saline) 22 % of control; (dose: 400.0 micrograms/kg/injection, schedule: Q04DX003 (sc), vehicle: saline) 91 % of control.

With `COc1cccc2c1C(=O)c1c(O)c3c(c(O)c1C2=O)C[C@H](O)C[C@@H]3OC1CC(N)C(O)C(C)O1` (stereo partly drawn), the T/C (dose: 3.12 mg/kg/injection, schedule: Q01DX010 (sc), vehicle: saline) was 165 % of control; the T/C under setting [1] is 83 % of control; the T/C (dose: 12.5 mg/kg/injection, schedule: Q01DX010 (sc), vehicle: saline) is 66 % of control; the T/C (dose: 25.0 mg/kg/injection, schedule: Q01DX010 (sc), vehicle: saline) is 81 % of control.

As for `O=c1[nH]c(=O)n(C2OC(CO)C(O)C2O)cc1F` (stereo not drawn), the T/C (dose: 9.38 mg/kg/injection, schedule: Q01DX010 (sc), vehicle: saline) was 21 % of control.

Consider `C=CS(C=C)=NS(=O)(=O)c1ccc(C)cc1`, for which the T/C reads like this: (dose: 18.75 mg/kg/injection, schedule: Q04DX003 (sc), vehicle: Klucel (hydroxypropylcellulose) (HPC)) 64 % of control; (dose: 37.5 mg/kg/injection, schedule: Q04DX003 (sc), vehicle: Klucel (hydroxypropylcellulose) (HPC)) 87 % of control.

Consider `Cc1cc(N(CC(C)Br)CC(C)Br)ccc1N=Nc1ccccc1C(=O)O` (stereo not drawn), for which the T/C by setting is: (dose: 3.13 mg/kg/injection, schedule: Q01DX010 (sc), vehicle: saline with Tween-80) 10 % of control and 12 % of control; (dose: 6.25 mg/kg/injection, schedule: Q01DX010 (sc), vehicle: saline with Tween-80) -46 % of control; (dose: 12.5 mg/kg/injection, schedule: Q01DX010 (sc), vehicle: saline with Tween-80) -79 % of control.

As for `CSc1ncnc2c1ncn2C1OC(CO)C(O)C1O` (stereo not drawn), the T/C by setting is: (dose: 75.0 mg/kg/injection, schedule: Q04DX003 (sc), vehicle: saline + alcohol) 3 % of control and 14 % of control; (dose: 150.0 mg/kg/injection, schedule: Q04DX003 (sc), vehicle: saline + alcohol) -81 % of control and -100 % of control; (dose: 300.0 mg/kg/injection, schedule: Q04DX003 (sc), vehicle: saline + alcohol) -90 % of control.

As for `Cc1cc2nc3[nH]c4ccccc4c3nc2cc1C`, the T/C was 92 % of control (dose: 100.0 mg/kg/injection, schedule: Q01DX010 (sc), vehicle: saline); 103 % of control (dose: 200.0 mg/kg/injection, schedule: Q01DX010 (sc), vehicle: saline); 63 % of control (dose: 400.0 mg/kg/injection, schedule: Q01DX010 (sc), vehicle: saline); 69 % of control (dose: 800.0 mg/kg/injection, schedule: Q01DX010 (sc), vehicle: saline).
